Assay results published in ChEMBL document CHEMBL1125437, “Syntheses, resolution, and structure-activity relationships of potent acetylcholinesterase inhibitors: 8-carbaphysostigmine analogues” (J Med Chem, 1992).

Legend:
[1] = molecular target: T1, Acetylcholinesterase (Homo sapiens, UniProt P22303); assay: In vitro inhibitory activity against human AchE (Acetylcholinesterase)
[2] = molecular target: T1, Acetylcholinesterase; assay: In vitro inhibitory activity against human Acetylcholinesterase
[3] = (§1) In vitro lethality measured at 24 hours in mice following intraperitoneal administration; conditions: mouse, in vivo, ip, LD50
[4] = system: Mus musculus; assay: Percent elevation of ACh level in mouse forebrain following intraperitoneal administration at a dose of 3.4 mg/kg; assay type: functional
[5] = system: Mus musculus; assay: Percent elevation of ACh level in mouse forebrain following intraperitoneal administration at a dose of 2.0 mg/kg; assay type: functional
[6] = system: Mus musculus; assay: Percent elevation of ACh level in mouse forebrain following intraperitoneal administration at a dose of 0.4 mg/kg; assay type: functional
[7] = system: Mus musculus; assay: Percent elevation of ACh level in mouse forebrain following intraperitoneal administration at a dose of 1.6 mg/kg; assay type: functional
[8] = system: Mus musculus; assay: as §1; conditions: in vivo, ip, 24 h
[9] = system: Mus musculus; assay: Percent elevation of ACh level in mouse forebrain following intraperitoneal administration at a dose of 0.8 mg/kg; assay type: functional
[10] = system: Mus musculus; assay: Percent elevation of ACh level in mouse forebrain following intraperitoneal administration at a dose of 1.2 mg/kg; assay type: functional
[11] = system: Mus musculus; assay: Percent elevation of ACh level in mouse forebrain following intraperitoneal administration at a dose of 4.8 mg/kg; assay type: functional

T1 sequence (P22303 whole entry): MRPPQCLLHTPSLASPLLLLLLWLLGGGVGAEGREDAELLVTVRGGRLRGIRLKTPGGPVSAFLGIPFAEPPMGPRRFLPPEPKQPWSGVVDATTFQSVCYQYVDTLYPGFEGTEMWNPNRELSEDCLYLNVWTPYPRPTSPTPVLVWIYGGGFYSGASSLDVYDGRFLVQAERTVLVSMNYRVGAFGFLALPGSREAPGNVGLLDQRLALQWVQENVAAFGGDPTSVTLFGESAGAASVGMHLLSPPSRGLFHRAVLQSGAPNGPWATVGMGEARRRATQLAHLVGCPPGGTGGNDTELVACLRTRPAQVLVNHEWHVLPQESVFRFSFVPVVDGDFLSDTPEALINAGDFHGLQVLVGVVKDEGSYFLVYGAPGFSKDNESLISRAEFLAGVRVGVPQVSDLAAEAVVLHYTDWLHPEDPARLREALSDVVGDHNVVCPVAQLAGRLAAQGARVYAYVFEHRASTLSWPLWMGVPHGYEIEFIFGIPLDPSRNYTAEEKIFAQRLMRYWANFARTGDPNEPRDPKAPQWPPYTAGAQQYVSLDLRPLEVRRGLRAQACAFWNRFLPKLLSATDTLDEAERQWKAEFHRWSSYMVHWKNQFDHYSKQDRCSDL

For `CCN1CC[C@H]2c3cc(OC(=O)NC)ccc3CC21` (stereo partly drawn), the IC50 [1] was 253 nM.

Compound `CCCCCCCNC(=O)Oc1ccc2c(c1)[C@]1(C)CCN(Cc3ccccc3)C1C2` (stereo partly drawn) has an IC50 [2] of 506 nM.

`CCCNC(=O)Oc1ccc2c(c1)[C@@H]1CCN(CC)C1C2` (stereo partly drawn) gave an IC50 [1] of 2190 nM.

Compound `CCCCCCCNC(=O)Oc1ccc2c(c1)[C@]1(C)CCN(C)C1C2` (stereo partly drawn) has an IC50 [1] of 114 nM and an LD50 at 24 h [3] of 21 mg/kg.

Compound `CCCCCCCNC(=O)Oc1ccc2c(c1)[C@@H]1CCN(CCC)C1C2` (stereo partly drawn) has an IC50 [1] of 629 nM.

With `CCN1CC[C@@]2(C)c3cc(OC(=O)N[C@@H](C)c4ccccc4)ccc3CC12` (stereo partly drawn) the IC50 [1] was 1330 nM.

Compound `CCCCCCCNC(=O)Oc1ccc2c(c1)[C@]1(C)CCN(CCC)C1C2` (stereo partly drawn) has an LD50 at 24 h [3] of 27 mg/kg and an IC50 [2] of 93 nM.

Compound `CCCCCCNC(=O)Oc1ccc2c(c1)[C@]1(C)CCN(CCC)C1C2.Cc1ccc(C(=O)OC(C(=O)O)C(OC(=O)c2ccc(C)cc2)C(=O)O)cc1.O` (mixture of isomers) has a Control [4] of 141%, an LD50 at 24 h [3] of 17 mg/kg and an IC50 [2] of 62 nM.

`CCCCCCNC(=O)Oc1ccc2c(c1)[C@@H]1CCN(CC)C1C2` (mixture of isomers) showed an IC50 [1] of 208 nM and an LD50 at 24 h [3] of 19 mg/kg.

`CCN1CC[C@@]2(C)c3cc(OC(=O)NC)ccc3CC12` (mixture of isomers) showed an LD50 at 24 h [3] of 0.88 mg/kg and an IC50 [2] of 38 nM.

In the case of `CCCCCCNC(=O)Oc1ccc2c(c1)[C@]1(C)CCN(C)C1C2` (mixture of isomers), the Control [5] is reported as 162%, the IC50 [1] is reported as 77 nM and the LD50 at 24 h [3] is reported as 10 mg/kg.

With `CCN1CC[C@@]2(C)c3cc(OC(=O)NCc4ccccc4)ccc3CC12` (mixture of isomers) the LD50 at 24 h [3] was 2 mg/kg and the Control [6] was 123%.

In the case of `CCCCNC(=O)Oc1ccc2c(c1)[C@]1(C)CCN(CC)C1C2` (mixture of isomers), the LD50 at 24 h [3] is reported as 4 mg/kg and the IC50 [2] is reported as 90 nM.

In the case of `CCCCCCCNC(=O)Oc1ccc2c(c1)[C@@H]1CCN(CC)C1C2` (mixture of isomers), the LD50 at 24 h [3] is reported as 58 mg/kg and the IC50 [2] is reported as 381 nM.

In the case of `CCCNC(=O)Oc1ccc2c(c1)[C@]1(C)CCN(CC)C1C2` (mixture of isomers), the IC50 [1] is reported as 154 nM and the LD50 at 24 h [3] is reported as 6 mg/kg.

Work on `CCN1CC[C@@]2(C)c3cc(OC(=O)Nc4ccccc4)ccc3CC12` (mixture of isomers) yielded a Control [7] of 121%, an IC50 [1] of 176 nM and an LD50 at 24 h [3] of 8 mg/kg.

For `CCCCNC(=O)Oc1ccc2c(c1)[C@@H]1CCN(CC)C1C2` (mixture of isomers), the IC50 [1] was 1080 nM and the LD50 at 24 h [3] was > 32 mg/kg.

With `CCN1CC[C@@]2(C)c3cc(OC(=O)NC(C)(C)C)ccc3CC12` (mixture of isomers) the LD50 at 24 h [3] was > 100 mg/kg.

Compound `CCCCCCNC(=O)Oc1ccc2c(c1)[C@]1(C)CCN(CC)C1C2` (mixture of isomers) has an IC50 [1] of 45 nM and an LD50 [8] of 5 mg/kg.

`CCCCCCCNC(=O)Oc1ccc2c(c1)[C@]1(C)CCN(CC)C1C2` (mixture of isomers) showed an IC50 [1] of 58 nM and an LD50 [8] of 9 mg/kg.

In the case of `CCCCCCNC(=O)Oc1ccc2c(c1)[C@]1(C)CCN(CC)C1C2` (single isomer, unassigned; (+)), the IC50 [1] is reported as 233 nM and the LD50 [8] is reported as 32 mg/kg.

`CCCCCCCNC(=O)Oc1ccc2c(c1)[C@]1(C)CCN(CC)C1C2` (single isomer, unassigned; (+)) showed an IC50 [1] of 211 nM and an LD50 [8] of 18 mg/kg.

In the case of `CCCCCCNC(=O)Oc1ccc2c(c1)[C@]1(C)CCN(CC)C1C2` (single isomer, unassigned; (-)), the Control [9] is reported as 148%, the IC50 [1] is reported as 20 nM and the LD50 [8] is reported as 4 mg/kg.

For `CCCCCCCNC(=O)Oc1ccc2c(c1)[C@]1(C)CCN(CC)C1C2` (single isomer, unassigned; (-)), the Control [10] was 129%, the IC50 [1] was 36 nM and the LD50 [8] was 6 mg/kg.

In the case of `CCCCCCNC(=O)Oc1ccc2c(c1)[C@@H]1CCN(CCC)C1C2` (stereo in doubt; 1y), the IC50 [1] is reported as 546 nM.

`CCCCCCNC(=O)Oc1ccc2c(c1)[C@@H]1CCN(CCC)C1C2` (stereo in doubt; 1z) gave an IC50 [1] of 518 nM.

Work on `CCCCCCCNC(=O)Oc1ccc2c(c1)[C@]1(C)CCN(C)[C@@H]1N2C` [EPTASTIGMINE] yielded an IC50 [1] of 110 nM, an LD50 at 24 h [3] of 24 mg/kg and a Control [11] of 148%.

For `CNC(=O)Oc1ccc2c(c1)[C@]1(C)CCN(C)[C@@H]1N2C` [PHYSOSTIGMINE], the LD50 at 24 h [3] was 0.88 mg/kg.
